{
  "source": "patent US20090155797A1",
  "about": "“Methods For Generating Enhanced Antibody-Producing Cell Lines With Improved Growth Characteristics” (priority 2002, published 2009)",
  "system": "H34 cells",
  "assay": "Antibody production by ELISA from H34 hybridoma cells incubated with protease inhibitor",
  "format": "cell-based, mouse",
  "conditions": "H34 cells incubated 1-3 days with 4 mM AEBSF in 96 well plates, supernatant ELISA; untreated H34 4.3 ug/ml",
  "data": [
    {"compound": "NCCc1ccc(S(=O)(=O)F)cc1", "note": "[AEBSF, 4-(2-aminoethyl)-benzenesulfonyl floride]", "values": [
      {"measurement": "ANTIBODY PRODUCTION TREATED", "value": 0.031, "unit": "µg/mL"}
    ]}
  ]
}
